This assay has as its target Alpha-glucosidase MAL12 (Saccharomyces cerevisiae (strain ATCC 204508 / S288c), UniProt P53341). In words: α-glucosidase Inhibitory Activity Assay. As to conditions: pH 7; 25 °C. As to the method: α-glucosidase (25 μL, 0.2 U/mL), 25 μL of various concentrations of samples, and 175 μL of 50 mM sodium phosphate buffer (pH 7.0) were mixed at room temperaturefor 10 min. The reaction was started by the addition of 25 μL of 2.5 mM p-nitrophenyl-α-d-glucopyranoside. […] Control sample contained 25 μL DMSO in place of test samples.

Chain of Alpha-glucosidase MAL12 (P53341 whole entry): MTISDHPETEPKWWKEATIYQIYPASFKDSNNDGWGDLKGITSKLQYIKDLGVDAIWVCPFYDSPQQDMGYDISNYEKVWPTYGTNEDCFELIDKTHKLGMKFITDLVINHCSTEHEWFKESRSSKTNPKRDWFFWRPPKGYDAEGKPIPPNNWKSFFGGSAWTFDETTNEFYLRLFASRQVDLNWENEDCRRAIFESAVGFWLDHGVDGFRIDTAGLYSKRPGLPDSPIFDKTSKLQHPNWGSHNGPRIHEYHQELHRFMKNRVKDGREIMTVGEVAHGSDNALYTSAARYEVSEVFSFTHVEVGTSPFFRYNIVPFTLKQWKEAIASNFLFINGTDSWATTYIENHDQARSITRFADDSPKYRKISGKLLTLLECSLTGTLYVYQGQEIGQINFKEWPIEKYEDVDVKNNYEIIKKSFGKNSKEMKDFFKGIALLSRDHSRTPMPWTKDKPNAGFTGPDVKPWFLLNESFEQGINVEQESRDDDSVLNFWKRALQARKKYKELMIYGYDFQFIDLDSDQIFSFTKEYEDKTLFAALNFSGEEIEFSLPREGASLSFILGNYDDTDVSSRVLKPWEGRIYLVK

Turning to `COc1ccc(C(=O)O)cc1OC` [3,4-dimethoxybenzoic acid], the IC50 was greater than 300 µM. Regarding `O=C(O)c1ccc(O)cc1` [4-Hydroxybenzoate, III], the IC50 was greater than 300 µM. `COc1cc(C(=O)O)ccc1O` [4-hydroxy-3-methoxybenzoic acid] had an IC50 greater than 300 µM. Take `COc1ccc(C(=O)OC[C@H]2OC3c4c(cc(O)c(OC)c4O)C(=O)OC3[C@@H](O)[C@@H]2O)cc1OC` (stereo not given in full) [11-O-(3',4'-dimethoxybenzoyl)-bergenin (6)]: the IC50 came to 24.6 µM. With `COc1cc(OC)cc(C(=O)OC[C@H]2OC3c4c(cc(O)c(OC)c4O)C(=O)OC3[C@@H](O)[C@@H]2O)c1` (stereo not given in full) [11-O-(3',5'-dimethoxybenzoyl)-bergenin (8)] the figure was greater than 300 µM; with `COc1c(O)cc2c(c1O)C1O[C@H](COC(=O)c3ccccc3)[C@@H](O)[C@H](O)C1OC2=O` (stereo not given in full) [11-O-benzoylbergenin (2)], 118 µM. `COc1c(O)cc2c(c1O)C1O[C@H](COC(=O)c3ccc(O)cc3)[C@@H](O)[C@H](O)C1OC2=O` (stereo not given in full) [11-O-p-hydroxybenzoylbergenin (3)] yielded an IC50 of 143 µM. In turn, `COc1ccc(C(=O)OC[C@H]2OC3c4c(cc(O)c(OC)c4O)C(=O)OC3[C@@H](O)[C@@H]2O)cc1` (stereo not given in full) [11-O-p-methoxybenzoylbergenin (4)] showed an IC50 of 144 µM. For the compound `COc1c(O)cc2c(c1O)C1O[C@H](COC(=O)c3ccc(O)c(O)c3)[C@@H](O)[C@H](O)C1OC2=O` (stereo not given in full) [11-O-protocatechuoylbergenin (5)], half-maximal inhibition (IC50) was put at 290 µM. With `COc1cc(C(=O)OC[C@H]2OC3c4c(cc(O)c(OC)c4O)C(=O)OC3[C@@H](O)[C@@H]2O)cc(OC)c1O` (stereo not given in full) [11-O-syringylbergenin (9)] the figure was greater than 300 µM. With `COc1cc(C(=O)OC[C@H]2OC3c4c(cc(O)c(OC)c4O)C(=O)OC3[C@@H](O)[C@@H]2O)ccc1O` (stereo not given in full) [11-O-vanilloylbergenin (7)] the figure was 187 µM; with `COc1ccc(C(=O)O)cc1` [Anisic acid], greater than 300 µM; with `COc1c(O)cc2c(c1O)C1O[C@H](CO)[C@@H](O)[C@H](O)C1OC2=O` (stereo not given in full) [Bergenin (1)], greater than 300 µM.

In the case of `O=C(O)c1ccc(O)c(O)c1` [Protocatechuic acid (M1)], the IC50 was greater than 300 µM. For the compound `O=C(O)c1ccccc1` [SAMPL4, O1], the IC50 is greater than 300 µM.

The values are drawn from BindingDB's records for doi:10.3109/14756366.2012.719503 (Kinki University, 2013).
